Entries after “also recorded” stand apart in the source; their conditions may differ. Where no end group is shown, it is not given here. [ ]: non-standard residue; d: D form. Aib = CC(C)(N)C(=O)O
Assays:
Format in all cases: in vivo, rat
[1] = tested on: GAD-65; assay: Immunohistochemistry of GAD-65 expression after PTZ injection; conditions: 20 μg/kg; somatosensory cortex, CA1 and CA3 hippocampal areas; P<0.001
Procedure: (§1) Adult male wistar rats (200-250g) were housed under controlled conditions (ambient temperature=22° C., humidity=40%; 12-h light/dark cycle) with food and water ad libitum. Animals were age- and weight-matched and randomly received by intra peritoneal injection NRP2945 in saline (5, 10 or 20 μg/kg) or saline alone (control) thirty minutes before the i.p. injection of pentylenetetrazol (PTZ; 50 mg/kg dissolved in 0.9% saline). All experiments were carried out according to the protocol approved by the Animal Ethics Committee of Shefa Neuroscience Center, Tehran, Iran.
(§2) Animals were deeply anaesthetized with chloral hydrate and perfused transcardially with 200 ml of saline followed by 600 ml of 4% PFA solution. The brains were extracted and kept in 4% PFA for at least 4 days at 4° C. and were then processed for immunohistochemistry studies. The serial (8 μm) coronal sections were prepared. Three paraffin embedded sections in 1.8 to 3.3 mm posterior to the bregma from each animal were cleared and rehydrated through a series of xylol and alcohol and washed with phosphate buffered saline (PBS) three times and incubated in blockage solution (3% H2O2/methanol for 5 min). After washing in PBS, slides were boiled in sodium citrate buffer at 95° C, for 10 min. […]

[2] = tested on: PTZ-induced epileptiform burst discharges; assay: Electrocorticogram (ECoG) recording of PTZ-induced epileptiform burst discharges
Procedure: Adult male wistar rats (200-250g) were housed under controlled conditions (ambient temperature=22° C., humidity=40%; 12-h light/dark cycle) with food and water ad libitum. Animals were age- and weight-matched and randomly received by intra peritoneal injection NRP2945 in saline (5, 10 or 20 μg/kg) or saline alone (control) thirty minutes before the i.p. injection of pentylenetetrazol (PTZ; 50 mg/kg dissolved in 0.9% saline). All experiments were carried out according to the protocol approved by the Animal Ethics Committee of Shefa Neuroscience Center, Tehran, Iran. Animals were anaesthetized with chloral hydrate 3.5% (dissolved in normal 0.9% saline; Sigma-Aldrich) and the head of each rat was placed in a stereotaxical instrument (Stoelting Instruments, USA). Epidural recording electrodes were stereotaxically implanted above the left and right somatosensory cortices (3.0 mm posteriorly to Bregma and 3.0 mm laterally from the midline) under continuous chloral hydrate anesthesia. The reference electrode is located at the nasal bone. ECoG was recorded via monopolar silver electrodes connected to an amplifier (EXT-02 F, NPI, Germany; with band-pass filters at […], sampling rate 10 kHz) and stored by a digital oscilloscope. ECoG recordings were performed for 30 minutes after receiving saline or NRP2945 (5, 10, 20 μg/kg) and 30 minutes after the injection of PTZ. Latency, duration, amplitude, and frequency of epileptic spikes activity were calculated using AxoScope 10 software (Axon Instruments, CA, USA).

[3] = tested on: dark neurons; assay: Dark neuron count (toluidine blue, physical dissector) after PTZ-induced seizures; conditions: hippocampal CA1 and CA3 areas and somatosensory cortex, 5, 10 and 20 μg/kg
Procedure: as §1
The volume-weighted mean volume of normal neurons was calculated directly by point-sampled intercept on 10 uniform systematically and randomly sampled microscopic fields of the pyramidal layers of hippocampal areas CA1 and CA3as well as the somatosensory cortex. A lattice of test points on lines was superimposed randomly onto the traced nuclear profiles in each particular field. […] These lines produced point-sampled intercepts, the lengths of which were measured and cubed. […] For quantitative analysis of dark neurons, the physical dissector method was used. […]
Animals were deeply anaesthetised with chloral hydrate (3.5%; Sigma-Aldrich) and perfused transcardially with 200 ml of saline followed by 200 ml of a solution containing 1% paraformaldehyde (PFA). […] The magnification was calculated using an objective micrometer.

[4] = tested on: GABAA receptor α subunit; assay: Immunohistochemistry of GABAA receptor α subunit expression after PTZ injection; conditions: 20 μg/kg; somatosensory cortex and hippocampal CA1 area; P<0.001
Procedure: as §1, §2

[5] = tested on: PTZ-induced seizures; assay: Behavioural test of PTZ-induced seizure attacks; conditions: for Behavioural test Severity: seizure score 0-6
Procedure: Adult male wistar rats (200-250g) were housed under controlled conditions (ambient temperature=22° C., humidity=40%; 12-h light/dark cycle) with food and water ad libitum. Animals were age- and weight-matched and randomly received by intra peritoneal injection NRP2945 in saline (5, 10 or 20 μg/kg) or saline alone (control) thirty minutes before the i.p. injection of pentylenetetrazol (PTZ; 50 mg/kg dissolved in 0.9% saline). All experiments were carried out according to the protocol approved by the Animal Ethics Committee of Shefa Neuroscience Center, Tehran, Iran. After each PTZ-injection, the convulsive behaviour of each rat was assessed for 30 min, and resultant seizures were scored as follows: 0=normal behaviour; 1=immobility; 2=rigid posture; 3=repetitive scratching, circling, or head bobbing; 4=forelimb clonus, rearing, and falling; 5=repeated occurrence of level four behaviour, 6=severe tonic-clonic behaviour or status epilepticus (Karimzadeh et al., 2013). Latency of seizure onset was defined as the average length of time in seconds between PTZ administration an initially detectable and seizure. A generalized seizure was characterised by symmetric forelimb and hind limb tonus, followed by hind limb clonus and subsequent jumping activity. Because some animals occasionally had more than one seizure, the seizure duration was assessed as the sum of durations of these multiple seizures.

[6] = tested on: GABAA receptor β subunit; assay: Immunohistochemistry of GABAA receptor β subunit expression after PTZ injection; conditions: 20 μg/kg; only CA1 hippocampal region; P<0.001
Procedure: as §1, §2

[7] = tested on: normal neurons; assay: Volume-weighted mean volume of normal neurons (stereology) after PTZ-induced seizures; design: Mean volume of normal neurons CA1 / Mean volume of normal neurons CA3 / Mean volume of normal neurons Cortex: unit not given here; conditions: for Mean volume of normal neurons CA1: hippocampal CA1; for Mean volume of normal neurons CA1 / Mean volume of normal neurons CA3 / Mean volume of normal neurons Cortex: rats; for Mean volume of normal neurons CA3: hippocampal CA3; for Mean volume of normal neurons Cortex: somatosensory cortex
Procedure: as §1
The volume-weighted mean volume of normal neurons was calculated directly by point-sampled intercept on 10 uniform systematically and randomly sampled microscopic fields of the pyramidal layers of hippocampal areas CA1 and CA3as well as the somatosensory cortex. A lattice of test points on lines was superimposed randomly onto the traced nuclear profiles in each particular field. Nuclei of neurons were marked and two isotropic lines from randomly selected directions were centred on this neuron and superimposed. The intersection of each line with the outer surface of the respective neuron's soma was marked. These lines produced point-sampled intercepts, the lengths of which were measured and cubed. The mean was multiplied by […], and finally all intercepts were averaged to give an estimate of the volume-weighted mean neuronal volume. For quantitative analysis of dark neurons, the physical dissector method was used. Ten pairs of sections, with […] distance, were collected from each brain. The first section of each pair was designated as the reference and the second one was used for comparison. On each pair of sections, at least 10 microscopic fields were selected by uniform systematic-random sampling in every area of interest. Using the unbiased frame and physical dissector counting rule, the counting of dark neurons in each field was carried out (Jafarian et al., 2010).
Animals were deeply anaesthetised with chloral hydrate (3.5%; Sigma-Aldrich) and perfused transcardially with 200 ml of saline followed by 200 ml of a solution containing 1% paraformaldehyde (PFA). After perfusion, all rats were decapitated and the brains were removed. The brains were kept in 1% PFA for at least 10 days and were then processed for histological studies as follows. The brain was cut into transverse sections of 8 µm thickness. Sections were stained with toluidine blue. The sections were selected by uniform systematic random sampling in every area of interest. Different areas (hippocampal CA1 and CA3 areas and somatosensory neocortex) were studied under a light microscope (BX51, Olympus, Japan) equipped with a digital camera. Digital photographs were taken using a 40x oil immersion objective lens (Olympus, Japan). The magnification was calculated using an objective micrometer.

[8] = 5 μg/kg i.p. 30 min before PTZ, anaesthetized rats
[9] = 10 μg/kg i.p. 30 min before PTZ, anaesthetized rats
[10] = 5 μg/kg i.p. 30 min before PTZ, rats
[11] = 10 μg/kg i.p. 30 min before PTZ, rats

## GlyArgArgAlaAlaProGlyArgAibGlyGly (GRRAAPGR[Aib]GG) [NRP2945, 11-residue neural regeneration peptide, derived from amino acid position 40-50 of human CAPS2]
[1]
  expression of GAD-65 immunoreactive neurons compared to control: significantly higher; also recorded: significant increase
[2]; [8]
  ECoG Amplitude: 1.1 ± 0.04 mV
  ECoG Duration: 60 ± 1.2 s
  ECoG Frequency: 4.7 ± 0.3 per min
  ECoG Latency: 326 ± 24 s
[2]; [9]
  ECoG Amplitude: 0.84 ± 0.1 mV
  ECoG Duration: 60 ± 2.1 s
  ECoG Frequency: 6.67 ± 0.9 per min
  ECoG Latency: 417 ± 37 s
[2]; 20 μg/kg i.p. 30 min before PTZ, anaesthetized rats
  development of epileptiform field potentials: completely prevented
[2]; 5 and 10 μg/kg i.p., P≦0.001
  amplitude of epileptiform field potentials compared to control: significantly smaller; also recorded: decreased
  duration of epileptiform field potentials compared to control: significantly shorter; also recorded: decreased
  latency time to onset of first spike waves compared to control: increased
  repetition rate (frequency) of epileptiform field potentials compared to control: significantly lower; also recorded: decreased
[3]
  Density (production) of dark neurons in comparison to saline: significantly decreased
[3]; listed as NRP 2945
  Density (production) of dark neurons in comparison to saline: inhibited
[4]
  expression of GABAA receptor α subunit compared to control: higher expression; also recorded: significant enhancement
[5]; 5 μg/kg i.p. 30 min before PTZ 50 mg/kg i.p., rats
  Behavioural test Latency: 230.2 ± 10.6 s
[5]; [10]
  Behavioural test Duration: 35.83 ± 5.9 s
  Behavioural test Severity: 3.67 ± 0.21
[5]; 10 μg/kg i.p. 30 min before PTZ 50 mg/kg i.p., rats
  Behavioural test Latency: 150.2 ± 7.4 s
[5]; [11]
  Behavioural test Duration: 37.67 ± 7.3 s
  Behavioural test Severity: 3.67 ± 0.21
[5]; 20 μg/kg i.p. 30 min before PTZ, rats
  PTZ-induced seizures or convulsions: completely prevented
[5]; 5 and 10 μg/kg i.p.
  latency of seizure attacks compared to control: not affecting
  severity of seizure attacks compared to control: not affecting
[5]; 5 and 10 μg/kg i.p., p<0.05, n=12
  total duration of seizure attacks compared to control: reduced
[6]
  expression of GABAA receptor β subunit compared to control: higher; also recorded: enhanced
[7]; 5 μg/kg
  mean volume of normal neurons after PTZ-induced seizures compared to control: did not affect
[7]; 10 and 20 μg/kg, CA1, CA3 and somatosensory cortex, P≦0.001
  mean volume-weighted volume of normal neurons compared to control: higher; also recorded: larger
[7]; 5 μg/kg i.p. before PTZ
  Mean volume of normal neurons CA1: 380.9 ± 7.1
  Mean volume of normal neurons CA3: 387.9 ± 3.2
  Mean volume of normal neurons Cortex: 340.8 ± 3.1
[7]; 10 μg/kg i.p. before PTZ
  Mean volume of normal neurons CA1: 413.1 ± 4.4
  Mean volume of normal neurons CA3: 438.6 ± 5.6
  Mean volume of normal neurons Cortex: 395.7 ± 6.1
[7]; 20 μg/kg i.p. before PTZ
  Mean volume of normal neurons CA1: 451.9 ± 5.5
  Mean volume of normal neurons CA3: 474.1 ± 5.1
  Mean volume of normal neurons Cortex: 387.9 ± 7.5

Source: patent US20160296590A1, “METHOD OF TREATING OR PREVENTING EPILEPSY OR SEIZURES USING ONE OR MORE NEURAL REGENERATION PEPTIDES” (CURONZ HOLDINGS COMPANY LIMITED, priority 2013, published 2016)
